# Laboratory results taken from patent US7977365B2 (priority 2006, dated 2011).
# Where two headings read alike, the source gives them in different places.
# Experiments:
# [1] = tested on: Lassa GP-pseudotyped-virus; assay: microbe, parasite or virus in culture; format: cell-based, Lassa fever virus; details: for EC50: Human immunodeficiency virus 1, read-out: Activity against Lassa GP-pseudotyped-virus EC50
# [2] = tested on: Lassa fever virus (Josiah strain); assay: organism not typed; format: cell-based; details: read-out: Activity vs. LFV EC50
# [3] = tested on: LASV GP; assay: organism not typed; format: cell-based; details: HEK-293T
# [4] = tested on: envelope of the New World arenavirus Guanarito; assay: microbe, parasite or virus in culture; format: cell-based; details: read-out: EC50, Guanarito envelope pseudotyped viral infection
# [5] = tested on: envelope of the New World arenavirus Tacaribe; assay: microbe, parasite or virus in culture; format: cell-based; details: read-out: EC50, Tacaribe envelope pseudotyped viral infection
# [6] = tested on: LCMV GP; assay: organism not typed; format: cell-based; details: HEK-293T, 72 h, read-out: IC50 ± SEM, LCMV (wt) GP pseudotype
# [7] = tested on: Pichinde GP; assay: organism not typed; format: cell-based; details: HEK-293T, 72 h, read-out: IC50 ± SEM, Pichinde (wt) GP pseudotype
# [8] = tested on: Junín GP; assay: organism not typed; format: cell-based; details: HEK-293T, 72 h, read-out: IC50 ± SEM, Junín GP pseudotype
# [9] = tested on: Machupo GP; assay: organism not typed; format: cell-based; details: HEK-293T, 72 h, read-out: IC50 ± SEM, Machupo GP pseudotype
# [10] = tested on: Tacaribe GP; assay: organism not typed; format: cell-based; details: HEK-293T, 72 h, read-out: IC50 ± SEM, Tacaribe GP pseudotype
# [11] = tested on: Guanarito GP; assay: organism not typed; format: cell-based; details: HEK-293T, 72 h, read-out: IC50 ± SEM, Guanarito GP pseudotype
# [12] = tested on: Sabia GP; assay: organism not typed; format: cell-based; details: HEK-293T, 72 h, read-out: IC50 ± SEM, Sabia GP pseudotype
# [13] = tested on: VSVg; assay: microbe, parasite or virus in culture; format: cell-based, vesicular stomatitis virus; details: read-out: IC50 ± SEM, VSV envelope pseudotype
# [14] = tested on: unselected TCRV; format: cell-based
# [15] = at 50 μM
# [16] = in vitro; details: human
SMILES,specificity [1],EC50 [1] [nM],other results
"COc1ccc(CNc2ccc3c(c2)ncn3-c2ccc(OC)cc2)cc1 [Compound 600037, (4-methoxy-benzyl)-[1-(4-methoxy-phenyl)-1H-benzimidazol-5-yl]-amine]",900,16,EC50 [2]: < 100 nM; IC50 ([3]; read-out: average IC50 against LASV GP pseudotypes): 16 nM
"COc1ccccc1-n1cnc2cc(NCc3ccc(N(C)C)cc3)ccc21 [Compound 600137, (4-dimethylamino-benzyl)-[1-(2-methoxy-phenyl)-1H-benzimidazol-5-yl]-amine]",–,> 12000,–
"CN(C)c1ccc(CNc2ccc3c(c2)ncn3-c2ccccc2)cc1 [Compound 600144, (4-dimethylamino-benzyl)-[1-phenyl-1H-benzimidazol-5-yl]-amine]",>1,11000,–
"COc1ccc(-n2cnc3cc(NCc4ccc(Br)cc4)ccc32)cc1 [Compound 600145, (4-bromo-benzyl)-[1-(4-methoxy-phenyl)-1H-benzimidazol-5-yl]-amine]",300,40,–
"COc1ccc(-n2cnc3cc(NCc4ccccc4OC)ccc32)cc1 [Compound 600146, (2-methoxy-benzyl)-[1-(4-methoxy-phenyl)-1H-benzimidazol-5-yl]-amine]",>40,300,–
"CCOc1ccc(CNc2ccc3c(c2)ncn3-c2ccc(OC)cc2)cc1 [Compound 600147, (4-ethoxy-benzyl)-[1-(4-methoxy-phenyl)-1H-benzimidazol-5-yl]-amine]",>4000,3,–
"COc1ccc(-n2cnc3cc(NCc4cccc5ccccc45)ccc32)cc1 [Compound 600149, [1-(4-methoxy-phenyl)-1H-benzimidazol-5-yl]-napthalen-1-ylmethyl-amine]",>200,60,–
"COc1ccc(-n2cnc3cc(NCc4ccccc4O)ccc32)cc1 [Compound 600153, 2-[[1-(4-methoxy-phenyl)-1H-benzimidazol-5-ylamino]-methyl]-phenol]",>60,180,–
"COc1ccc(CNc2ccc3c(c2)ncn3-c2ccc(C)cc2)cc1 [Compound 600169, (4-methoxy-benzyl)-(1-p-tolyl-1H-benzimidazol-5-yl)-amine]",>500,20,–
"COc1ccc(-n2cnc3cc(NCc4ccc(Cl)cc4)ccc32)cc1 [Compound 600170, (4-chloro-benzyl)-[1-(4-methoxy-phenyl)-1H-benzimidazol-5-yl]-amine]",>200,40,–
"COc1ccc(-n2cnc3cc(NCc4ccc(OC)c(OC)c4)ccc32)cc1 [Compound 600172, (3,4-dimethoxy-benzyl)-[1-(4-methoxy-phenyl)-1H-benzimidazol-5-yl]-amine]",>10,700,–
"Brc1ccc(CNc2ccc3c(c2)ncn3-c2ccccc2)cc1 [Compound 600173, (4-bromo-benzyl)-(1-phenyl-1H-benzimidazol-5-yl)-amine]",>30,400,–
"CCOc1ccc(CN(c2ccc3c(c2)ncn3-c2ccccc2OC)S(=O)(=O)c2ccc(C)cc2)cc1 [Compound 600179, N-(4-ethoxy-benzyl)-N-[1-(2-methoxy-phenyl)-1H-benzimidazol-5-yl]-4-methylbenzenesulfonamide]",>100,110,–
"COc1ccc(-n2cnc3cc(NCc4ccc(C)cc4)ccc32)cc1 [Compound 600188, [1-(4-methoxy-phenyl)-1H-benzimidazol-5-yl]-(4-methyl-benzyl)-amine]",>4000,3,–
"COc1ccc(-n2cnc3cc(NCc4cccc(OC)c4OC)ccc32)cc1 [Compound 600189, (2,3-dimethoxy-benzyl)-[1-(4-methoxy-phenyl)-1H-benzimidazol-5-yl]-amine]",100,100,–
"COc1ccc(CNc2ccc3c(c2)ncn3-c2ccccc2OC)cc1 [Compound 600190, (4-methoxy-benzyl)-[1-(2-methoxy-phenyl)-1H-benzimidazol-5-yl]-amine]",3,2000,–
"COc1ccc(-n2cnc3cc(NCc4cccc(OC)c4)ccc32)cc1 [Compound 600191, (3-methoxy-benzyl)-[1-(4-methoxy-phenyl)-1H-benzimidazol-5-yl]-amine]",>300,40,–
"COc1ccccc1-n1cnc2cc(NCc3cccc(OC)c3OC)ccc21 [Compound 600192, (2,3-dimethoxy-benzyl)-[1-(2-methoxy-phenyl)-1H-benzimidazol-5-yl]-amine]",none,5000,–
"COc1ccc(-n2cnc3cc(NCc4ccc(C(C)C)cc4)ccc32)cc1 [Compound 600193, (4-isopropyl-benzyl)-[1-(4-methoxy-phenyl)-1H-benzimidazol-5-yl]-amine]","13,000",1.1,"EC50 [2]: < 100 nM; EC50 [4]: < 1 nM; EC50 [5]: 4 nM; IC50 ([3]; 72 h, read-out: IC50 ± SEM, Lassa (LASV wt) GP pseudotype): 1.6 ± 0.3 nM; IC50 [6]: 31000 ± 4000 nM; IC50 [7]: 2600 ± 500 nM; IC50 [8]: 0.2 ± 0.03 nM; IC50 [9]: 2.3 ± 1.3 nM; IC50 [10]: 4 ± 2 nM; IC50 [11]: 0.34 ± 0.07 nM; IC50 [12]: 12 ± 3 nM; IC50 ([13]; Vesicular stomatitis virus, HEK-293T): ~30000 nM; IC50 [13]: 29000 ± 2500 nM; reduction of TCRV titer [14]: 1000 fold; solubility observation [15]: visual evidence of insolubility; CC50 [16]: 48000 nM"
"COc1ccc(CNc2ccc3c(c2)ncn3-c2ccccc2)cc1 [Compound 600196, (4-methoxy-benzyl)-(1-phenyl-1H-benzimidazol-5-yl)-amine]",>400,30,–
COc1ccc(-n2cnc3cc(N(Cc4ccc(C(C)C)cc4)C(C)=O)ccc32)cc1 [Compound 600362],40,400,–
"COc1ccc(-n2cnc3cc(N(Cc4ccc(C(C)C)cc4)S(=O)(=O)c4ccc(C)cc4)ccc32)cc1 [Compound 600363, N-(4-isopropyl-benzyl)-N-[1-(4-methoxy-phenyl)-1H-benzimidazol-5-yl]-4-methylbenzenesulfonamide]",100,200,–
